Results reported in ChEMBL document CHEMBL5390248, “Design, synthesis and anticancer activity evaluation of 4-(3-1H-indazolyl)amino quinazoline derivatives as PAK4 inhibitors” (Bioorg Med Chem, 2023).
Blank lines part the entries; values can stand above or below the compound they belong to.

Tests used:
[1] = target: T1, Serine/threonine-protein kinase PAK 4 (Homo sapiens, UniProt O96013); assay: Inhibition of PAK4 (unknown origin) using lipid substrate at 100 nM incubated for 40 mins in presence of ATP by ADP-Glo plus luminescence kinase assay relative to control
Target sequence in this assay (O96013 whole entry, looked up): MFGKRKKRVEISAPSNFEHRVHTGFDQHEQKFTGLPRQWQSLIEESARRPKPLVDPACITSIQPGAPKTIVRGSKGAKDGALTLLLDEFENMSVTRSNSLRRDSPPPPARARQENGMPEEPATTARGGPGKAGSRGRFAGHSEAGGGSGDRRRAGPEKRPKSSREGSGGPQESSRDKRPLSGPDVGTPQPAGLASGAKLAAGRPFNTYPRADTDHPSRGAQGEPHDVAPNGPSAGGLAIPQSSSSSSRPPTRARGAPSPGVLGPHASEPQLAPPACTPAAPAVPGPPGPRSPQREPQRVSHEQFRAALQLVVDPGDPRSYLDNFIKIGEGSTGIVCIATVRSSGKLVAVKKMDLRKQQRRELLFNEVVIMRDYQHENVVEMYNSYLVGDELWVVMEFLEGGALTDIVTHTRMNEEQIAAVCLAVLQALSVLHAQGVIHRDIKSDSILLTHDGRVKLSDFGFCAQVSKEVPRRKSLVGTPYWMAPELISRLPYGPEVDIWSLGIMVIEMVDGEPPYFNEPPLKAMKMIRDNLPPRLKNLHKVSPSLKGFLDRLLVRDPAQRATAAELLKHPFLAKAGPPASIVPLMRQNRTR

[2] = Antiproliferative activity against HEK293T cells assessed as inhibition of cell growth incubated for 24 hrs by CCK8 assay; type: toxicity, cell-based, HEK-293T; details: human
A549 [3] = assay: cells; details: Homo sapiens, A549, 24 h
[4] = target: T1, Serine/threonine-protein kinase PAK 4; assay: Inhibition of PAK4 (unknown origin) using lipid substrate incubated for 40 mins in presence of ATP by ADP-Glo plus luminescence kinase assay
Target sequence in this assay (O96013 whole entry): as the sequence (O96013 whole entry, looked up) above

A549 [5] = assay: Induction of apoptosis in human A549 cells assessed as viable cells at 3 uM measured after 24 hrs by AnnexinV-FITC/propidium iodide staining based flow cytometry method (reference value: 98.7 %); type: functional; details: read-out: Activity
A549 [6] = assay: Induction of apoptosis in human A549 cells assessed as early apoptotic cells at 0.5 uM measured after 24 hrs by AnnexinV-FITC/propidium iodide staining based flow cytometry method (reference value: 0.049 %); type: functional
A549 [7] = assay: Induction of apoptosis in human A549 cells assessed as viable cells at 1 uM measured after 24 hrs by AnnexinV-FITC/propidium iodide staining based flow cytometry method (reference value: 98.7 %); type: functional; details: read-out: Activity
A549 [8] = assay: Induction of cell cycle arrest in human A549 cells assessed as accumulation of G1 phase cells at 1 uM measured for 24 hrs by PI staining based flow cytometric analysis (reference value: 27.5 % ); type: functional
A549 [9] = assay: Induction of apoptosis in human A549 cells assessed as necrotic cells at 3 uM measured after 24 hrs by AnnexinV-FITC/propidium iodide staining based flow cytometry method (reference value: 1.11 %); type: functional
A549 [10] = assay: Induction of cell cycle arrest in human A549 cells assessed as accumulation of G2 phase cells at 0.5 uM measured for 24 hrs by PI staining based flow cytometric analysis (reference value: 32.4 % ); type: functional
A549 [11] = assay: Induction of apoptosis in human A549 cells assessed as late apoptotic cells at 1 uM measured after 24 hrs by AnnexinV-FITC/propidium iodide staining based flow cytometry method (reference value: 0.12 %); type: functional
A549 [12] = assay: Induction of apoptosis in human A549 cells assessed as early apoptotic cells at 3 uM measured after 24 hrs by AnnexinV-FITC/propidium iodide staining based flow cytometry method (reference value: 0.049 %); type: functional
A549 [13] = assay: Induction of cell cycle arrest in human A549 cells assessed as accumulation of G2 phase cells at 3 uM measured for 24 hrs by PI staining based flow cytometric analysis (reference value: 32.4 % ); type: functional
A549 [14] = assay: Induction of cell cycle arrest in human A549 cells assessed as accumulation of G2 phase cells at 1 uM measured for 24 hrs by PI staining based flow cytometric analysis (reference value: 32.4 % ); type: functional
A549 [15] = assay: Induction of cell cycle arrest in human A549 cells assessed as accumulation of G1 phase cells at 0.5 uM measured for 24 hrs by PI staining based flow cytometric analysis (reference value: 27.5 % ); type: functional
A549 [16] = assay: Induction of cell cycle arrest in human A549 cells assessed as accumulation of S phase cells at 0.5 uM measured for 24 hrs by PI staining based flow cytometric analysis (reference value: 35.3 % ); type: functional
A549 [17] = assay: Induction of apoptosis in human A549 cells assessed as viable cells at 0.5 uM measured after 24 hrs by AnnexinV FITC/propidium iodide staining based flow cytometry method (reference value: 98.7 %); type: functional; details: read-out: Activity
A549 [18] = assay: Induction of cell cycle arrest in human A549 cells assessed as accumulation of S phase cells at 3 uM measured for 24 hrs by PI staining based flow cytometric analysis (reference value: 35.3 % ); type: functional
A549 [19] = assay: Induction of cell cycle arrest in human A549 cells assessed as accumulation of G1 phase cells at 3 uM measured for 24 hrs by PI staining based flow cytometric analysis (reference value: 27.5 % ); type: functional
A549 [20] = assay: Induction of cell cycle arrest in human A549 cells assessed as accumulation of S phase cells at 1 uM measured for 24 hrs by PI staining based flow cytometric analysis (reference value: 35.3 % ); type: functional
A549 [21] = assay: Induction of apoptosis in human A549 cells assessed as necrotic cells at 0.5 uM measured after 24 hrs by AnnexinV-FITC/propidium iodide staining based flow cytometry method (reference value: 1.11 %); type: functional
A549 [22] = assay: Induction of apoptosis in human A549 cells assessed as late apoptotic cells at 0.5 uM measured after 24 hrs by AnnexinV-FITC/propidium iodide staining based flow cytometry method (reference value: 0.12 %); type: functional
A549 [23] = assay: Induction of apoptosis in human A549 cells assessed as necrotic cells at 1 uM measured after 24 hrs by AnnexinV-FITC/propidium iodide staining based flow cytometry method (reference value: 1.11 %); type: functional
A549 [24] = assay: Induction of apoptosis in human A549 cells assessed as early apoptotic cells at 1 uM measured after 24 hrs by AnnexinV-FITC/propidium iodide staining based flow cytometry method (reference value: 0.049 %); type: functional
A549 [25] = assay: Induction of apoptosis in human A549 cells assessed as late apoptotic cells at 3 uM measured after 24 hrs by AnnexinV-FITC/propidium iodide staining based flow cytometry method (reference value: 0.12 %); type: functional
A549 [26] = assay: Antiproliferative activity against human A549 cells assessed as inhibition of cell growth incubated for 72 hrs by CCK8 assay; type: functional, cell-based; details: A549, 72 h
A549 [27] = assay: cells; details: Homo sapiens, A549, 72 h

SMILES: CNC[C@@H](C)NC(=O)c1nc(Nc2n[nH]c3ccccc23)c2cc(Cl)ccc2n1
inhibition [1]: 27%

SMILES: N[C@@H](CNC(=O)c1nc(Nc2n[nH]c3ccccc23)c2cc(Cl)ccc2n1)c1ccccc1
IC50 at 24 h [2]: > 10 µM | IC50 (A549 [3]): 1.9 µM | inhibition [1]: 78% | IC50 [4]: 0.013 µM

SMILES: C[C@@H]1CN(C(=O)c2nc(Nc3n[nH]c4ccccc34)c3cc(Cl)ccc3n2)CCN1
inhibition [1]: 10%

SMILES: N[C@@H](CNC(=O)c1nc(Nc2n[nH]c3ccccc23)c2cc(Cl)ccc2n1)Cc1ccccc1
inhibition [1]: 75% | IC50 [4]: 0.011 µM

SMILES: N[C@H](CNC(=O)c1nc(Nc2n[nH]c3ccccc23)c2cc(Cl)ccc2n1)Cc1ccccc1
IC50 at 24 h [2]: > 10 µM | IC50 (A549 [3]): 2.28 µM | inhibition [1]: 77% | IC50 [4]: 0.009 µM

SMILES: N[C@H](CNC(=O)c1nc(Nc2n[nH]c3ccccc23)c2cc(Cl)ccc2n1)c1ccccc1
inhibition [1]: 70% | IC50 [4]: 0.024 µM

SMILES: Cc1cc(Nc2cc(Cc3ccccc3)nc(NC3CCNCC3)n2)n[nH]1
IC50 (A549 [26]): 2.53 µM

SMILES: Cc1nc(Nc2n[nH]c3c2CN(C(=O)N[C@H](CN(C)C)c2ccccc2)C3(C)C)c2sccc2n1 [PF-03758309]
IC50 at 24 h [2]: > 10 µM | IC50 (A549 [3]): 0.67 µM | inhibition [1]: 81% | IC50 (A549 [27]): 0.02 µM

SMILES: O=C(c1nc(Nc2n[nH]c3ccccc23)c2cc(Cl)ccc2n1)N1CCNCC1
inhibition [1]: 4%

SMILES: C[C@H]1CN(C(=O)c2nc(Nc3n[nH]c4ccccc34)c3cc(Cl)ccc3n2)CCN1
inhibition [1]: 3%

SMILES: CNC[C@H](C)NC(=O)c1nc(Nc2n[nH]c3ccccc23)c2cc(Cl)ccc2n1
inhibition [1]: 3%

Further lines, with some results ahead:

IC50 (A549 [3]): 0.61 µM | inhibition [1]: 73% | IC50 [4]: 0.01 µM
SMILES: CC(C)[C@@H](N)CNC(=O)c1nc(Nc2n[nH]c3ccccc23)c2cc(Cl)ccc2n1
viability at 3 µM (A549 [5]): 50.5% | Activity (A549 [6]): 15.1% | viability at 1 µM (A549 [7]): 64.2% | Activity (A549 [8]): 45.2% | Activity (A549 [9]): 4.6% | Activity (A549 [10]): 28.9% | Activity (A549 [11]): 4.83% | Activity (A549 [12]): 41% | Activity (A549 [13]): 21.9% | IC50 at 24 h [2]: > 10 µM | Activity (A549 [14]): 22.7% | Activity (A549 [15]): 34.1% | Activity (A549 [16]): 35% | viability at 0.5 µM (A549 [17]): 81.6% | Activity (A549 [18]): 26% | Activity (A549 [19]): 50.9% | Activity (A549 [20]): 31.2% | Activity (A549 [21]): 2.2% | Activity (A549 [22]): 1.1% | Activity (A549 [23]): 3.96% | Activity (A549 [24]): 27% | Activity (A549 [25]): 3.97%

inhibition [1]: 35%
SMILES: C[C@@H](N)CNC(=O)c1nc(Nc2n[nH]c3ccccc23)c2cc(Cl)ccc2n1

inhibition [1]: 11%
SMILES: CN(C)CCCNC(=O)c1nc(Nc2n[nH]c3ccccc23)c2cc(Cl)ccc2n1

inhibition [1]: 2%
SMILES: NCCNC(=O)c1nc(Nc2n[nH]c3ccccc23)c2cc(Cl)ccc2n1

inhibition [1]: 25%
SMILES: C[C@H](N)CNC(=O)c1nc(Nc2n[nH]c3ccccc23)c2cc(Cl)ccc2n1

inhibition [1]: 10%
SMILES: O=C(NC1CNC1)c1nc(Nc2n[nH]c3ccccc23)c2cc(Cl)ccc2n1

inhibition [1]: 76% | IC50 [4]: 0.016 µM
SMILES: CC(C)[C@H](N)CNC(=O)c1nc(Nc2n[nH]c3ccccc23)c2cc(Cl)ccc2n1

inhibition [1]: 4%
SMILES: CN(C)CCNC(=O)c1nc(Nc2n[nH]c3ccccc23)c2cc(Cl)ccc2n1

inhibition [1]: 3%
SMILES: O=C(NCCO)c1nc(Nc2n[nH]c3ccccc23)c2cc(Cl)ccc2n1

inhibition [1]: 3%
SMILES: CNCCNC(=O)c1nc(Nc2n[nH]c3ccccc23)c2cc(Cl)ccc2n1

inhibition [1]: 15%
SMILES: O=C(NCC1CNC1)c1nc(Nc2n[nH]c3ccccc23)c2cc(Cl)ccc2n1
